Measurements from ChEMBL document CHEMBL5614394, “Novel pleuromutilin derivatives conjugated with phenyl-sulfide and boron-containing moieties as potent antibacterial agents against antibiotic-resistant bacteria” (Eur J Med Chem, 2024).
Converted amounts (≈) assume the structure as drawn.

Test system: Streptococcus pneumoniae
Assay: Antibacterial activity against penicillin resistant Streptococcus pneumoniae isolate 20-2 assessed as inhibition of visible growth of bacteria incubated for 24 hrs by CLSI protocol based broth-dilution method
Type: functional
Conditions: not given
Compound `C=C[C@]1(C)C[C@@H](OC(=O)CSc2cccc(NC(=O)c3ccc4c(c3)B(O)OC4)c2)[C@]2(C)[C@H](C)CC[C@]3(CCC(=O)[C@H]32)[C@@H](C)[C@@H]1O` has an MIC of 0.06 µg/mL (≈ 0.0929 µM).

Test system: Staphylococcus aureus
Assay: Antibacterial activity against methicillin-resistant Staphylococcus aureus J1 harboring (lsa(E)+) genotype assessed as inhibition of visible growth of bacteria incubated for 24 hrs by CLSI protocol based broth-dilution method
Type: functional
Conditions: not given
In the case of `C=C[C@]1(C)C[C@@H](OC(=O)CSc2cccc(NC(=O)c3ccc4c(c3)B(O)OC4)c2)[C@]2(C)[C@H](C)CC[C@]3(CCC(=O)[C@H]32)[C@@H](C)[C@@H]1O`, the MIC is reported as 4 µg/mL (≈ 6.2 µM).

Test system: not listed separately
Assay: Stability in human liver microsomes assessed as drug metabolism at 1 uM measured within 1 hrs in presence of NADPH by LC-MS analysis
Type: ADME, Microsome
Conditions: read-out: Drug metabolism
For `C=C[C@]1(C)C[C@@H](OC(=O)CSc2cccc(NC(=O)c3ccc4c(c3)B(O)OC4)c2)[C@]2(C)[C@H](C)CC[C@]3(CCC(=O)[C@H]32)[C@@H](C)[C@@H]1O`, the metabolised at 1 h, 1 µM was 51.1%.

Test system: Streptococcus pneumoniae
Assay: Antibacterial activity against penicillin resistant Streptococcus pneumoniae isolate 20-1 assessed as inhibition of visible growth of bacteria incubated for 24 hrs by CLSI protocol based broth-dilution method
Type: functional
Conditions: not given
`C=C[C@]1(C)C[C@@H](OC(=O)CSc2cccc(NC(=O)c3ccc4c(c3)B(O)OC4)c2)[C@]2(C)[C@H](C)CC[C@]3(CCC(=O)[C@H]32)[C@@H](C)[C@@H]1O` showed an MIC of 0.06 µg/mL (≈ 0.0929 µM).

Test system: Staphylococcus aureus
Assay: Antibacterial activity against Staphylococcus aureus USA 300 assessed as inhibition of visible growth of bacteria incubated for 24 hrs by CLSI protocol based broth-dilution method
Type: functional
Conditions: not given
For `C=C[C@]1(C)C[C@@H](OC(=O)CSc2cccc(NC(=O)c3ccc4c(c3)B(O)OC4)c2)[C@]2(C)[C@H](C)CC[C@]3(CCC(=O)[C@H]32)[C@@H](C)[C@@H]1O`, the MIC was ≤ 0.03 µg/mL.

Test system: Staphylococcus aureus
Assay: Antibacterial activity against Staphylococcus aureus ATCC 25923 assessed as inhibition of visible growth of bacteria incubated for 24 hrs by CLSI protocol based broth-dilution method
Type: functional
Conditions: not given
For `C=C[C@]1(C)C[C@@H](OC(=O)CSc2cccc(NC(=O)c3ccc4c(c3)B(O)OC4)c2)[C@]2(C)[C@H](C)CC[C@]3(CCC(=O)[C@H]32)[C@@H](C)[C@@H]1O`, the MIC was ≤ 0.03 µg/mL.

Test system: not listed separately
Assay: Acute toxicity in male CD-1 mouse assessed as effect on survival at 40 mg/kg, iv administered as single dose for 7 days
Type: organism-based
Conditions: in vivo, 168 h, time 7 day
In the case of `C=C[C@]1(C)C[C@@H](OC(=O)CSc2cccc(NC(=O)c3ccc4c(c3)B(O)OC4)c2)[C@]2(C)[C@H](C)CC[C@]3(CCC(=O)[C@H]32)[C@@H](C)[C@@H]1O`, the Activity is reported as “Non-Toxic”.

Test system: Enterococcus faecium
Assay: Antibacterial activity against pleuromutilin-resistant Enterococcus faecium 18SC29-2 harboring (lsa(E)-) genotype assessed as inhibition of visible growth of bacteria incubated for 24 hrs by CLSI protocol based broth-dilution method
Type: functional
Conditions: not given
For `C=C[C@]1(C)C[C@@H](OC(=O)CSc2cccc(NC(=O)c3ccc4c(c3)B(O)OC4)c2)[C@]2(C)[C@H](C)CC[C@]3(CCC(=O)[C@H]32)[C@@H](C)[C@@H]1O`, the MIC was ≤ 0.03 µg/mL.

Test system: Enterococcus faecium
Assay: Antibacterial activity against pleuromutilin-resistant Enterococcus faecium 18FJZ1-1 harboring (lsa(E)+) genotype assessed as inhibition of visible growth of bacteria incubated for 24 hrs by CLSI protocol based broth-dilution method
Type: functional
Conditions: not given
`C=C[C@]1(C)C[C@@H](OC(=O)CSc2cccc(NC(=O)c3ccc4c(c3)B(O)OC4)c2)[C@]2(C)[C@H](C)CC[C@]3(CCC(=O)[C@H]32)[C@@H](C)[C@@H]1O` showed an MIC of 2 µg/mL (≈ 3.1 µM).

Test system: Staphylococcus aureus
Assay: Antibacterial activity against methicillin-resistant Staphylococcus aureus USA 300 assessed as number of colonies with prevalence of spontaneous mutation at 8 times of MIC incubated for 48 hrs by agar dilution assay
Type: functional
Conditions: not given
With `C=C[C@]1(C)C[C@@H](OC(=O)CSc2cccc(NC(=O)c3ccc4c(c3)B(O)OC4)c2)[C@]2(C)[C@H](C)CC[C@]3(CCC(=O)[C@H]32)[C@@H](C)[C@@H]1O` the Activity was <4.7 10^-11No_unit.

Test system: Escherichia coli
Assay: Antibacterial activity against Escherichia coli ATCC 25922 assessed as inhibition of visible growth of bacteria incubated for 24 hrs by CLSI protocol based broth-dilution method
Type: functional
Conditions: not given
`C=C[C@]1(C)C[C@@H](OC(=O)CSc2cccc(NC(=O)c3ccc4c(c3)B(O)OC4)c2)[C@]2(C)[C@H](C)CC[C@]3(CCC(=O)[C@H]32)[C@@H](C)[C@@H]1O` showed an MIC of 32 µg/mL (≈ 49.6 µM).

Test system: Staphylococcus aureus
Assay: Antibacterial activity against Staphylococcus aureus ATCC 33591 assessed as inhibition of visible growth of bacteria incubated for 24 hrs by CLSI protocol based broth-dilution method
Type: functional
Conditions: not given
For `C=C[C@]1(C)C[C@@H](OC(=O)CSc2cccc(NC(=O)c3ccc4c(c3)B(O)OC4)c2)[C@]2(C)[C@H](C)CC[C@]3(CCC(=O)[C@H]32)[C@@H](C)[C@@H]1O`, the MIC was ≤ 0.03 µg/mL.

Test system: Streptococcus pneumoniae
Assay: Antibacterial activity against penicillin sensitive Streptococcus pneumoniae isolate 20-1 assessed as inhibition of visible growth of bacteria incubated for 24 hrs by CLSI protocol based broth-dilution method
Type: functional
Conditions: not given
Work on `C=C[C@]1(C)C[C@@H](OC(=O)CSc2cccc(NC(=O)c3ccc4c(c3)B(O)OC4)c2)[C@]2(C)[C@H](C)CC[C@]3(CCC(=O)[C@H]32)[C@@H](C)[C@@H]1O` yielded an MIC of 0.06 µg/mL (≈ 0.0929 µM).

Test system: Staphylococcus aureus
Assay: Antibacterial activity against methicillin resistant Staphylococcus aureus USA 300 infected in peritonitis sepsis CD-1 mouse model assessed as mouse survival rate at 40 mg/kg, iv administered as single dose and measured after 7 days relative to control
Type: functional
Conditions: USA 300, 168 h, time 7 day
Compound `C=C[C@]1(C)C[C@@H](OC(=O)CSc2cccc(NC(=O)c3ccc4c(c3)B(O)OC4)c2)[C@]2(C)[C@H](C)CC[C@]3(CCC(=O)[C@H]32)[C@@H](C)[C@@H]1O` has a survival at 40 mg/kg of 17%.

Test system: Staphylococcus aureus
Assay: Antibacterial activity against Staphylococcus aureus ATCC 700788 assessed as inhibition of visible growth of bacteria incubated for 24 hrs by CLSI protocol based broth-dilution method
Type: functional
Conditions: not given
With `C=C[C@]1(C)C[C@@H](OC(=O)CSc2cccc(NC(=O)c3ccc4c(c3)B(O)OC4)c2)[C@]2(C)[C@H](C)CC[C@]3(CCC(=O)[C@H]32)[C@@H](C)[C@@H]1O` the MIC was ≤ 0.03 µg/mL.

Test system: Staphylococcus aureus
Assay: Antibacterial activity against Staphylococcus aureus ATCC 43300 assessed as inhibition of visible growth of bacteria incubated for 24 hrs by CLSI protocol based broth-dilution method
Type: functional
Conditions: not given
For `C=C[C@]1(C)C[C@@H](OC(=O)CSc2cccc(NC(=O)c3ccc4c(c3)B(O)OC4)c2)[C@]2(C)[C@H](C)CC[C@]3(CCC(=O)[C@H]32)[C@@H](C)[C@@H]1O`, the MIC was ≤ 0.03 µg/mL.

Test system: Enterococcus faecalis
Assay: Antibacterial activity against Enterococcus faecalis ATCC 29212 assessed as inhibition of visible growth of bacteria incubated for 24 hrs by CLSI protocol based broth-dilution method
Type: functional
Conditions: not given
With `C=C[C@]1(C)C[C@@H](OC(=O)CSc2cccc(NC(=O)c3ccc4c(c3)B(O)OC4)c2)[C@]2(C)[C@H](C)CC[C@]3(CCC(=O)[C@H]32)[C@@H](C)[C@@H]1O` the MIC was 1 µg/mL (≈ 1.55 µM).

Test system: Staphylococcus aureus
Assay: Antibacterial activity against Staphylococcus aureus ATCC 700699 assessed as inhibition of visible growth of bacteria incubated for 24 hrs by CLSI protocol based broth-dilution method
Type: functional
Conditions: not given
With `C=C[C@]1(C)C[C@@H](OC(=O)CSc2cccc(NC(=O)c3ccc4c(c3)B(O)OC4)c2)[C@]2(C)[C@H](C)CC[C@]3(CCC(=O)[C@H]32)[C@@H](C)[C@@H]1O` the MIC was ≤ 0.03 µg/mL.
